The values that follow come from patent publication US20250230149A1, “MGLUR5 MODULATING COMPOUNDS, COMPOSITIONS, AND METHODS OF USE” (Allyx Therapeutics, Inc., priority 2022, published 2025).

Assay type in all cases: in vitro ADME
One data set has as its target T1, CYP2C9 (Homo sapiens, UniProt P11712).
T1 construct: purchased
The experiment in a line: CYP inhibition in human liver microsomes, CYP2C9. From the text: (§1) In Vitro CYP Inhibition of CYP1A2, CYP2C8, CYP2C9, CYP2C19, CYP2D6 and CYP3A4 in Human Liver Microsomes This study assessed the potential inhibitory effect of Compound 1 Form A toward CYP1A2, CYP2C8, CYP2C9, CYP2C19, CYP2D6 and CYP3A4. Known inhibitors of each CYP were used as positive controls.

The next data set addresses T2, OATP1B3 (Homo sapiens, UniProt Q9NPD5).
T2 construct: host or cells: unspecified cell test systems
Description: In vitro inhibition of human transporter OATP1B3. The conditions noted are these: in vitro cell test system; read-out: IC50, inhibition of probe substrate transport via OATP1B3. The method, then: (§2) The in vitro potential for Compound 1 Form A to be an inhibitor of the human transporters P-glycoprotein (P-gp), […] (OATP) 1B1 and OATP1B3 was assessed in various in vitro cell test systems, and of BSEP in membrane vesicles.
(§3) A decrease in the transporter-mediated activity of probe substrate in the presence of a positive control inhibitor, determined from incubations run alongside test compound, confirmed that the in vitro test systems were capable of identifying transporter inhibitors.

The next data set addresses T3, OATP1B1 (Homo sapiens, UniProt Q9Y6L6).
T3 construct: host or cells: unspecified cell test systems
Description: In vitro inhibition of human transporter OATP1B1. The note with it: in vitro cell test system; read-out: IC50, inhibition of probe substrate transport via OATP1B1. The procedure: as §2, §3

The next data set has as its target T4, CYP2C8 (Homo sapiens, UniProt P10632).
T4 construct: purchased
The experiment in a line: CYP inhibition in human liver microsomes, CYP2C8.
Description: as §1

The target of data set [1] is T5, CYP1A2 (Homo sapiens, UniProt P05177).
T5 construct: purchased
T5 sequence (P05177 1-516): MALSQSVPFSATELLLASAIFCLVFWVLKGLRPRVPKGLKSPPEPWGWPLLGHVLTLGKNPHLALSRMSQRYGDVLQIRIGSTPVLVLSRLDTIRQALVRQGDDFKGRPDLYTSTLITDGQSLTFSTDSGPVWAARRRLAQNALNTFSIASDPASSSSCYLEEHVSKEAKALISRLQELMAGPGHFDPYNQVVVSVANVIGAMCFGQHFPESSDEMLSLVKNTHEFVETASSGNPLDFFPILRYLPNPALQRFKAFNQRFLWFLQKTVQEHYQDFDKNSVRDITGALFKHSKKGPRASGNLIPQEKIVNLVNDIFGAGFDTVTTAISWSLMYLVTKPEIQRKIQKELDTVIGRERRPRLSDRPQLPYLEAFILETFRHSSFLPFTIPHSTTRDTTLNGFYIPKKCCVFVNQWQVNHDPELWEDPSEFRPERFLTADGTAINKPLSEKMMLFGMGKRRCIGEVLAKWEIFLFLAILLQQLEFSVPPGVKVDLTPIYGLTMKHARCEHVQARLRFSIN
Description: CYP450 reaction phenotyping in Supersomes, CYP1A2. From the text:
(§4) In Vitro CYP450 Reaction Phenotyping Study in Supersomes™ Over-Expressing Human CYP Enzymes The CYPP450 enzymes involved in the Phase I metabolism of Compound 1 Form A were investigated in vitro. […] No evidence of Compound 1 metabolism by CYP2B6, CYP2C8, CYP2C9 and CYP2C19 was observed.

Data set [2] has as its target T6, CYP2D6 (Homo sapiens, UniProt P10635).
T6 construct: purchased
The experiment in a line: CYP inhibition in human liver microsomes, CYP2D6.
Description: as §1

In data set [3] the target is T7, CYP3A4 (Homo sapiens, UniProt P08684).
T7 construct: purchased
Description: Metabolism dependent inhibition in human liver microsomes, CYP3A4. The text has this: (§5) In Vitro Metabolite Dependent Inhibition of CYP2D6 and CYP3A4 Study in Human Liver Microsomes
(§6) This study assessed the metabolism dependent inhibition potential of Compound 1 Form A toward CYP3A4 and CYP2D6 in human liver microsomes. Troleandomycin and paroxetine, known metabolism dependent inhibitors of CYP3A4 and CYP2D6, respectively were used as positive controls.

In data set [4] the target is T5, CYP1A2. The experiment in a line: CYP inhibition in human liver microsomes, CYP1A2.
Description: as §1

The target in data set [5] is T6, CYP2D6. The experiment in a line: CYP450 reaction phenotyping in Supersomes, CYP2D6.
Description: as §4

The next data set concerns the target BSEP (Homo sapiens, UniProt O95342). Description: In vitro inhibition of BSEP in membrane vesicles. The conditions noted are these: read-out: IC50, inhibition of probe substrate transport via BSEP. The method, then: as §2, §3
For a further data set, the target named is T8, P-glycoprotein (P-gp) (Homo sapiens, UniProt P08183).
T8 construct: host or cells: unspecified cell test systems
Description: In vitro inhibition of human transporter P-gp. The note with it: in vitro cell test system; read-out: IC50, inhibition of probe substrate transport via P-gp. The procedure: as §2, §3

Data set [6] concerns the target T6, CYP2D6. Description: Metabolism dependent inhibition in human liver microsomes, CYP2D6.
Description: as §5, §6

Another data set addresses CYP2C19 (Homo sapiens, UniProt P33261). The experiment in a line: CYP inhibition in human liver microsomes, CYP2C19. Also noted: CYP2D6 and CYP3A4 in Human Liver Microsomes; from tissue; host or cells: human liver microsomes.
Description: as §1

Data set [7] addresses T7, CYP3A4. Description: CYP inhibition in human liver microsomes, CYP3A4.
Description: as §1

Data set [8] deals with T7, CYP3A4. The experiment in a line: CYP450 reaction phenotyping in Supersomes, CYP3A4.
Description: as §4

T6 sequence (P10635 whole entry): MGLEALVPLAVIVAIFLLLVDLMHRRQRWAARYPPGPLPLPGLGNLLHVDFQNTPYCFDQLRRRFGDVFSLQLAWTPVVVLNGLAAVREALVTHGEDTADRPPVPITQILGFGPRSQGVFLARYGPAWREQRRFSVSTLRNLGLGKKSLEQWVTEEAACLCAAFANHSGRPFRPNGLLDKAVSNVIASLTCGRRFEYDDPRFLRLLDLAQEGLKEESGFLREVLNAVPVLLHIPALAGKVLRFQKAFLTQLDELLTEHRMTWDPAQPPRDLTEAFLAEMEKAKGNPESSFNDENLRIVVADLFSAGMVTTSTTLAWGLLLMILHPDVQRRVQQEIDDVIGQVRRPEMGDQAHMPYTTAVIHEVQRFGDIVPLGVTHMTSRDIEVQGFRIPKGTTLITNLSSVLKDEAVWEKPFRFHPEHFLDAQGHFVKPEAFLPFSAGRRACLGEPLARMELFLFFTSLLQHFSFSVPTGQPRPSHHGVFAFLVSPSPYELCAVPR
T7 sequence (P08684 whole entry): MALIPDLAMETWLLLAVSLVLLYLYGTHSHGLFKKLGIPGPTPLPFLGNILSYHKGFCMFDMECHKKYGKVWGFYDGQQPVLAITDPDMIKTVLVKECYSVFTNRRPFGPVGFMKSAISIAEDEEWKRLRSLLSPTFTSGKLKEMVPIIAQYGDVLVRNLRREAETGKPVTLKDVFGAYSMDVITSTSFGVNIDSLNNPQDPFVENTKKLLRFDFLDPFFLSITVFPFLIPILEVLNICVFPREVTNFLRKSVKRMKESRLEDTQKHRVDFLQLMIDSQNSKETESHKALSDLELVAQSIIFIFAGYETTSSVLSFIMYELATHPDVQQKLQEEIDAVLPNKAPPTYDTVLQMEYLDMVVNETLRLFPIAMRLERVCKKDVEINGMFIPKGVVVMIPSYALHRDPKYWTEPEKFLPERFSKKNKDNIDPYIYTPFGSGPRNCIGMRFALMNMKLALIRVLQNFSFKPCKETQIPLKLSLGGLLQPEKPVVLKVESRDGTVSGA
Chain of CYP2C19 (P33261 whole entry): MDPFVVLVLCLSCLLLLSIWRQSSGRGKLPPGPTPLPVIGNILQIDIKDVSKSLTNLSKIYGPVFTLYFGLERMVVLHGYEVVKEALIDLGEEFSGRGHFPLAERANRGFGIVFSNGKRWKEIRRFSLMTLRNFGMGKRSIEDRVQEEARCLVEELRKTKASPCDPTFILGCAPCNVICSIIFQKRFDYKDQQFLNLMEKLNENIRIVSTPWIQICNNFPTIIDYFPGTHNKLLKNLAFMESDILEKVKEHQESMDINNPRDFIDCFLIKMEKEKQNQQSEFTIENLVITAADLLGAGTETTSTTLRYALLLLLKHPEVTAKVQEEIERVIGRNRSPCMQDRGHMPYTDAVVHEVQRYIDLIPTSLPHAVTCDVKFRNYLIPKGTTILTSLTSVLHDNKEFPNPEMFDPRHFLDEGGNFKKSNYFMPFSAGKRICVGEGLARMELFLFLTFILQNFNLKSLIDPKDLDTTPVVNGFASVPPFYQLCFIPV
T8 sequence (P08183 whole entry): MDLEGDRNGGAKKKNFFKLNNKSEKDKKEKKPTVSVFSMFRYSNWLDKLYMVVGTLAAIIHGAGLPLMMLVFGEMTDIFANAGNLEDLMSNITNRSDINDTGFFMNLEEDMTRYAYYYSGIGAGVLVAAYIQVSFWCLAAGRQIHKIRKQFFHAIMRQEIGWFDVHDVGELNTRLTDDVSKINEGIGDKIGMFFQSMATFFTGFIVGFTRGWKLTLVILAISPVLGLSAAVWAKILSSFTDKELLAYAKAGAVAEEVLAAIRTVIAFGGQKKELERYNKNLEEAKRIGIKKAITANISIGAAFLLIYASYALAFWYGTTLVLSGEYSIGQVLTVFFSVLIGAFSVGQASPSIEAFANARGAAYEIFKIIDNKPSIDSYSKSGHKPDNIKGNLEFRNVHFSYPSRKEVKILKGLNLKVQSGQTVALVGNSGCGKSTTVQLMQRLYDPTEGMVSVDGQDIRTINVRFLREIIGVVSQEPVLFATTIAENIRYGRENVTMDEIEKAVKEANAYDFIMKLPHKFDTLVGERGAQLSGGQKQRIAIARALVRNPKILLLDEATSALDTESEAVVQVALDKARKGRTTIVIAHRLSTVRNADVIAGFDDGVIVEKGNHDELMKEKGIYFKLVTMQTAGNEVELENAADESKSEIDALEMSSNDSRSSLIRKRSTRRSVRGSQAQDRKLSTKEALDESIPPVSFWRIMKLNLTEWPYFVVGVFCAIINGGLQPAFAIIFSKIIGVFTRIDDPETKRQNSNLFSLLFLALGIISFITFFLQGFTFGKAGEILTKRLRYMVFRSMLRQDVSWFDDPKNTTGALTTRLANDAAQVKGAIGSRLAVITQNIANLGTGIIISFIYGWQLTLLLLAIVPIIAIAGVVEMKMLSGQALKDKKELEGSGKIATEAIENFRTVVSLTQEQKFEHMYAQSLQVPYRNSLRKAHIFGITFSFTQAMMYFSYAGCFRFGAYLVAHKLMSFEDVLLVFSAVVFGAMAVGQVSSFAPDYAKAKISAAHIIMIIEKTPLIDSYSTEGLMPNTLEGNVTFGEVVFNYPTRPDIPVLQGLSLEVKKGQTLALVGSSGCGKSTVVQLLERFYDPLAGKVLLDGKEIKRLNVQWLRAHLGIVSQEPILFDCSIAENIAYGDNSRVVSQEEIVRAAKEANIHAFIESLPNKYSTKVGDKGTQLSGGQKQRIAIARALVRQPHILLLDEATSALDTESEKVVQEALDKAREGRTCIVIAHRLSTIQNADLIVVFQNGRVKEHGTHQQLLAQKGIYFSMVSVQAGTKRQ
T1 sequence (P11712 whole entry): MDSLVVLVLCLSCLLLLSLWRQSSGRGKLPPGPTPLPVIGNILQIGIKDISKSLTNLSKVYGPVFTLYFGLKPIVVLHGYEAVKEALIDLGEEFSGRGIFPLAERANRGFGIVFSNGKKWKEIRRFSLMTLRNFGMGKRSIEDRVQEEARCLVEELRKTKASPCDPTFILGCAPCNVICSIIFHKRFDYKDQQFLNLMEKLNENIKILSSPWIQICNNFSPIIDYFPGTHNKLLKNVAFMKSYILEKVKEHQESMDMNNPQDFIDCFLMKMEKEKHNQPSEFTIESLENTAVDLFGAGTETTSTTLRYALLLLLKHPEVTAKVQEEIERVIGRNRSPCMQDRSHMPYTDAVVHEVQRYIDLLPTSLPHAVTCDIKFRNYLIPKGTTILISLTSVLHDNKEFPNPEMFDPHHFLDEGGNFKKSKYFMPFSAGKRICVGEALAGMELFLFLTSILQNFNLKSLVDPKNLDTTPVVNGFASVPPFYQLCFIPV
T4 sequence (P10632 whole entry): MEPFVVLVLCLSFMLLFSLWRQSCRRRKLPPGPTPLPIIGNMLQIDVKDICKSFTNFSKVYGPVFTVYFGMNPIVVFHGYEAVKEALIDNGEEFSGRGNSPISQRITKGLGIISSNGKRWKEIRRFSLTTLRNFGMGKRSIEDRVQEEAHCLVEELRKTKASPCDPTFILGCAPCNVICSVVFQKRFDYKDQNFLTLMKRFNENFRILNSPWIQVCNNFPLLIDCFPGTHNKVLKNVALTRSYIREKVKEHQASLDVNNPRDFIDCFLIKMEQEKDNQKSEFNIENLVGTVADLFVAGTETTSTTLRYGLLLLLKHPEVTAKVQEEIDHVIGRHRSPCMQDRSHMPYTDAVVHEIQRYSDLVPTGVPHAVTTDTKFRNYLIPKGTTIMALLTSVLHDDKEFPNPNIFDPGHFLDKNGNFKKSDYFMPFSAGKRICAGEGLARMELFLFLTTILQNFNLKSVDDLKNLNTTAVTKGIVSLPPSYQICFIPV
T3 sequence (Q9Y6L6 whole entry): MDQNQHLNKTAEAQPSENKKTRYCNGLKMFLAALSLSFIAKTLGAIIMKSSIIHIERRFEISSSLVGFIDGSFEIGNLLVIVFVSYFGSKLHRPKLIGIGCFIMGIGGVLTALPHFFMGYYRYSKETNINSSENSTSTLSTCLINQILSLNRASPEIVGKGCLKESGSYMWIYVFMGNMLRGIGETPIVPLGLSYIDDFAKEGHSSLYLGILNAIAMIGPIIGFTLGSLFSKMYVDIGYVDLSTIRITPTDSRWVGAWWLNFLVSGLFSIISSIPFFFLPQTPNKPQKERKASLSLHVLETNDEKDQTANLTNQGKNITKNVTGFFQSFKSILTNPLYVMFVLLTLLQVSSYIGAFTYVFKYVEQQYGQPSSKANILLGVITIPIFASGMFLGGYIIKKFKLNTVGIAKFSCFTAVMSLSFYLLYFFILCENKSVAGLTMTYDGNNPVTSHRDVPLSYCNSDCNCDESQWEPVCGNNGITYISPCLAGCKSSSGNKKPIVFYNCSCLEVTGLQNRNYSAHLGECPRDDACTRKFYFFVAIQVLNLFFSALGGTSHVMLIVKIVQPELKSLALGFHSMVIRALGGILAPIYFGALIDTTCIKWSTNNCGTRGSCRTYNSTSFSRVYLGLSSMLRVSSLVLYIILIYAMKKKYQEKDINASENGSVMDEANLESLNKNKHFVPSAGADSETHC

Consider `O=C1N[C@H](c2cncc(C#Cc3ccccc3)c2)[C@@H](c2ccccc2Cl)O1` [Compound 1 Form A, (4R,5R)-5-(2-chlorophenyl)-4-(5-(phenylethynyl)pyridin-3-yl)oxazolidin-2-one], for which the concentration for half-maximal inhibition (IC50) turned out to be 12.4 µM against CYP2C9; 32 µM on OATP1B3; 6.74 µM at OATP1B1; 52.1 µM against CYP2C8; 1950 nM at CYP1A2 [4]; 13.9 µM on BSEP. Moreover, the figures for the IC50 on P-glycoprotein (P-gp), on CYP2C19 and against CYP3A4 [7] (atorvastatin only) were 27.7 µM, 6.17 µM and 55.7 µM, respectively. Besides, the “predicted contribution to total metabolism” value is given as 43.1% on CYP1A2 [1] (CYP1A2, relative activity of factors method); 18% on CYP2D6 [5] (CYP2D6, relative activity of factors method); 38.9% on CYP3A4 [8] (CYP3A4, relative activity of factors method). For the same compound, the CLint amounted to 0.261 μL/min/pmol CYP on CYP1A2 [1] (Supersomes, CYP1A2); 0.984 μL/min/pmol CYP at CYP2D6 [5] (Supersomes, CYP2D6); 0.0786 μL/min/pmol CYP at CYP3A4 [8] (Supersomes, CYP3A4). The half-life on CYP1A2 [1] (human, Supersomes over-expressing human CYP1A2, Supersomes, CYP1A2) was 64 min; at CYP2D6 [5] (human, Supersomes over-expressing human CYP2D6, Supersomes, CYP2D6) it was 14 min; at CYP3A4 [8] (human, Supersomes over-expressing human CYP3A4, Supersomes, CYP3A4), 176 min. For the same compound, on CYP2D6 [2], the “inhibition of CYP2D6” value is listed as “no inhibition”. Besides, the “metabolism dependent inhibition of CYP3A4” value on CYP3A4 [3] is given as “not a metabolism dependent inhibitor”. Moreover, at CYP2D6 [6], the “metabolism dependent inhibition of CYP2D6” value was “not a metabolism dependent inhibitor”. Further, the “inhibition of CYP3A4” value at CYP3A4 [7] (midazolam as substrate) and against CYP3A4 [7] (nifedipine as substrate) was “no inhibition” in each case.
